What was measured:
SIK2 [1] = target: T1, SIK2 (Homo sapiens, UniProt Q9H0K1); assay: SIK2 Enzymatic Assay High Version 2 (High ATP); assay type: biochemical
In short: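 At room temperature, enzyme (6 nM, 2× final) was preincubated with compound for 30 min, then 6 mM ATP and 400 μM HDAC5tide (both 2× final) were added for 2 h. ADP formed was measured by ADP-Glo Max (2 h reagent, 1 h detection) using luminescence.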

SIK2 [2] = target: T1, SIK2; assay: SIK2 Enzymatic Assay Version 1 (ADP Glo); assay type: biochemical; details: enzyme 0.6 nM, 160 μM ATP and 140 μM HDAC5tide (each 2× final concentration); 30 minutes pre-incubation, 4 hours; ADPGlo luminescence; read-out: SIK2 ADP Glo IC50 (μM) (Test Example 1)
In short: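 Kinase activity read as ADP production by ADP-Glo luminescence, all steps at room temperature. Compound and SIK2 (0.6 nM, a 2× concentration) were preincubated 30 min; ATP-only wells lacking peptide were the negative control; depletion 40 min, detection ≥30 min.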

T1 sequence (Q9H0K1 whole entry, species assumed): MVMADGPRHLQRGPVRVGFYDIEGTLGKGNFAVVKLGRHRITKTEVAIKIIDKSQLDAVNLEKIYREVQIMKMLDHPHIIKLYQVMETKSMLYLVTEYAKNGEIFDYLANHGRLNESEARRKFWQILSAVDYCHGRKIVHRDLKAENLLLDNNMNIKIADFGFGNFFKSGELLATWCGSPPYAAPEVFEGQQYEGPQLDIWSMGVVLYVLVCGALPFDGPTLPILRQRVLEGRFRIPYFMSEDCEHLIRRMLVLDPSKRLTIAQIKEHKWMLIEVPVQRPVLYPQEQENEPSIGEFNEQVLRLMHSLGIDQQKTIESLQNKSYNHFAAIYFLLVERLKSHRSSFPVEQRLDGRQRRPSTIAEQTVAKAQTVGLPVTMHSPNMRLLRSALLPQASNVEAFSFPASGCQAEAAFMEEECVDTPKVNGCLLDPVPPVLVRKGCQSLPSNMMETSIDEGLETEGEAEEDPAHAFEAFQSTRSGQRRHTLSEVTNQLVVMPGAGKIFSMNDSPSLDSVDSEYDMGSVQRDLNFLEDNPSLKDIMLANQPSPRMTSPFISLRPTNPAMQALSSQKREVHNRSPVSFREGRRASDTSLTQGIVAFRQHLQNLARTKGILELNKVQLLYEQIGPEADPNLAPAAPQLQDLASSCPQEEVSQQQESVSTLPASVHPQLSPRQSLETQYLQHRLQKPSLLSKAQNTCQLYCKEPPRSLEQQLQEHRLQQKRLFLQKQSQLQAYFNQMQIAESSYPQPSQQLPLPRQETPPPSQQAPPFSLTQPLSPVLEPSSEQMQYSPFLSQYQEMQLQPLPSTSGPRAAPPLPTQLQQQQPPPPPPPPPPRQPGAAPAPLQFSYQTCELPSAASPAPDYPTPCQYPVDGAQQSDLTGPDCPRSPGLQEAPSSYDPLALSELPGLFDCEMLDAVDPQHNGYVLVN

Row | IC50 (SIK2 [1]) [nM] | IC50 (SIK2 [2]) [µM] | Structure (SMILES)
1 | 31 | 0.00588 | CC1(C)CNC[C@@H](COc2ccc(C#N)cc2-c2ccn3nc(NC(=O)C4CC4)cc3c2)O1 [Example 104, N-[5-[5-cyano-2-[[(2S)-6,6-dimethylmorpholin-2-yl]methoxy]phenyl]pyrazolo[1,5-a]pyridin-2-yl]cyclopropanecarboxamide]
2 | < 0.838 | 0.000208 | Cc1cc(-c2ccn3nc(NC(=O)C4CC4)cc3c2)c(O[C@H]2C[C@H]3COC[C@@H](C2)N3)cn1 [Example 136, endo-N-(5-(5-(((1R,5S,7s)-3-oxa-9-azabicyclo[3.3.1]nonan-7-yl)oxy)-2-methylpyridin-4-yl)pyrazolo[1,5-a]pyridin-2-yl)cyclopropanecarboxamide]
3 | 207 | 0.0142 | Cc1cc(-c2ccn3nc(Nc4cc(C)nc(C)n4)cc3c2)c(OCC(C)(C)O)nn1 [Example 600, 1-[4-[2-[(2,6-dimethylpyrimidin-4-yl)amino]pyrazolo[1,5-a]pyridin-5-yl]-6-methyl-pyridazin-3-yl]oxy-2-methyl-propan-2-ol]
4 | 12.6 | 0.000664 | Cc1cc(-c2ccn3nc(NC(=O)C4CC4)cc3c2)c(OC[C@@H]2CNCCO2)cn1 [Example 143, N-[5-[2-methyl-5-[[(2S)-morpholin-2-yl]methoxy]-4-pyridyl]pyrazolo[1,5-a]pyridin-2-yl]cyclopropanecarboxamide]
5 | 116 | 0.00509 | CN1CCC(COc2cnc(C#N)cc2-c2ccn3nc(NC(=O)C4CC4)cc3c2)CC1 [Example 51, N-[5-[2-cyano-5-[(1-methyl-4-piperidyl)methoxy]-4-pyridyl]pyrazolo[1,5-a]pyridin-2-yl]cyclopropanecarboxamide]
6 | 75.9 | 0.00625 | N#Cc1cc(-c2ccn3nc(NC(=O)C4CC4)cc3c2)c(OC[C@@H]2CCN(C3CC3)C2)cn1 [Example 589, N-[5-[2-cyano-5-[[(3R)-1-cyclopropylpyrrolidin-3-yl]methoxy]-4-pyridyl]pyrazolo[1,5-a]pyridin-2-yl]cyclopropanecarboxamide]
7 | 3.75 | 0.000323 | CC#Cc1cc(-c2ccn3nc(NC(=O)C4CC4)cc3c2)c(OC2CN(C)C2)cn1 [Example 442, N-[5-[5-(1-methylazetidin-3-yl)oxy-2-prop-1-ynyl-4-pyridyl]pyrazolo[1,5-a]pyridin-2-yl]cyclopropanecarboxamide]
8 | 4.73 | 0.000382 | Cc1cc(-c2ccn3nc(NC(=O)C4CC4)cc3c2)c(OC[C@@H]2CN[C@H](C)CO2)cn1 [Example 168, N-[5-[2-methyl-5-[[(2S,5R)-5-methylmorpholin-2-yl]methoxy]-4-pyridyl]pyrazolo[1,5-a]pyridin-2-yl]cyclopropanecarboxamide]
9 | 24 | 0.00116 | Cc1cc(-c2ccn3nc(NC(=O)C4CC4)cc3c2)c(OCC2(N)CCC2)cn1 [Example 154, N-[5-[5-[(1-aminocyclobutyl)methoxy]-2-methyl-4-pyridyl]pyrazolo[1,5-a]pyridin-2-yl]cyclopropanecarboxamide]
10 | 29.3 | 0.00137 | Cn1ccc(N[C@H]2C[C@@H](COc3cnc(C#N)cc3-c3ccn4nc(NC(=O)C5CC5)cc4c3)C2)n1 [Example 177, cis-N-[5-[2-cyano-5-[[3-[(1-methylpyrazol-3-yl)amino]cyclobutyl]methoxy]-4-pyridyl]pyrazolo[1,5-a]pyridin-2-yl]cyclopropanecarboxamide]
11 | 99.9 | 0.00431 | CN1CCC(Oc2cnc(C#N)cc2-c2ccn3nc(NC(=O)C4CC4)cc3c2)C1 (single isomer, unassigned) [Example 58, (*R)—N-(5-(2-cyano-5-((1-methylpyrrolidin-3-yl)oxy)pyridin-4-yl)pyrazolo[1,5-a]pyridin-2-yl)cyclopropanecarboxamide]
12 | 111 | 0.00705 | N#Cc1cc(-c2ccn3nc(NC(=O)C4CC4)cc3c2)c(OC2CNC2)cn1 [Example 31, N-[5-[5-(azetidin-3-yloxy)-2-cyano-4-pyridyl]pyrazolo[1,5-a]pyridin-2-yl]cyclopropanecarboxamide]
13 | 8.63 | 0.000387 | N#Cc1cc(-c2ccn3nc(NC(=O)C4CC4)cc3c2)c(O[C@H]2CC[C@H](O)CC2)cn1 [Example 64, N-[5-[2-cyano-5-(4-hydroxycyclohexoxy)-4-pyridyl]pyrazolo[1,5-a]pyridin-2-yl]cyclopropanecarboxamide]
14 | 4.17 | 0.000402 | N#Cc1cc(-c2ccn3nc(NC(=O)C4CC4)cc3c2)c(O[C@@H]2C[C@@H]3C[C@H]2CN3)cn1 (single isomer, unassigned) [Example 17, N-[5-[5-[[(1*S,4*S,5*R)-2-azabicyclo[2.2.1]heptan-5-yl]oxy]-2-cyano-4-pyridyl]pyrazolo[1,5-a]pyridin-2-yl]cyclopropanecarboxamide]
15 | 53.5 | 0.0041 | CCOC(=O)CN[C@H]1C[C@@H](COc2cnc(C#N)cc2-c2ccn3nc(NC(=O)C4CC4)cc3c2)C1 [Example 598, ethyl 2-[[3-[[6-cyano-4-[2-(cyclopropanecarbonylamino)pyrazolo[1,5-a]pyridin-5-yl]-3-pyridyl]oxymethyl]cyclobutyl]amino]acetate]
16 | 7.51 | 0.000373 | N#Cc1cc(-c2ccn3nc(NC(=O)C4CC4)cc3c2)c(O[C@@H]2CCN[C@H](C(F)(F)F)C2)cn1 (single isomer, unassigned) [Example 8, N-(5-(2-cyano-5-(((2*S,4*R)-2-(trifluoromethyl)piperidin-4-yl)oxy)pyridin-4-yl)pyrazolo[1,5-a]pyridin-2-yl)cyclopropanecarboxamide]
17 | 51.1 | 0.00298 | CN1CCC[C@@H](Oc2cnc(C#N)cc2-c2ccn3nc(NC(=O)C4CC4)cc3c2)C1 [Example 88, (R)—N-(5-(2-cyano-5-((1-methylpiperidin-3-yl)oxy)pyridin-4-yl)pyrazolo[1,5-a]pyridin-2-yl)cyclopropanecarboxamide]
18 | 36.4 | 0.00212 | Cc1cc(-c2ccn3nc(NC(=O)C4CC4)cc3c2)c(OCC2(N)COC2)cn1 [Example 144, N-[5-[5-[(3-aminooxetan-3-yl)methoxy]-2-methyl-4-pyridyl]pyrazolo[1,5-a]pyridin-2-yl]cyclopropanecarboxamide]
19 | 409 | 0.0208 | N#Cc1cc(-c2ccn3nc(NC(=O)C4CC4)cc3c2)c(N2CC(O)C2)cn1 [Example 70, N-[5-[2-cyano-5-(3-hydroxyazetidin-1-yl)-4-pyridyl]pyrazolo[1,5-a]pyridin-2-yl]cyclopropanecarboxamide]
20 | 98.6 | 0.00492 | CC(=O)N1CCC(COc2cnc(C#N)cc2-c2ccn3nc(NC(=O)C4CC4)cc3c2)CC1 [Example 60, N-[5-[5-[(1-acetyl-4-piperidyl)methoxy]-2-cyano-4-pyridyl]pyrazolo[1,5-a]pyridin-2-yl]cyclopropanecarboxamide]
21 | 3.04 | 0.000299 | C[C@]1(O)CC[C@@H](Oc2cnc(C#N)cc2-c2ccn3nc(NC(=O)C4CC4)cc3c2)CC1 [Example 89]
22 | 33.8 | 0.00176 | Cc1cc(-c2ccn3nc(Nc4ccccn4)cc3c2)c(O[C@H]2CC[C@H](O)CC2)cn1 [Example 182, trans-4-[[6-methyl-4-[2-(2-pyridylamino)pyrazolo[1,5-a]pyridin-5-yl]-3-pyridyl]oxy]cyclohexanol]
23 | 1250 | 0.0359 | CC1(C)CC(Oc2cnc(C#N)cc2-c2ccn3nc(NC(=O)C4CC4)cc3c2)CC(C)(C)N1 [Example 93, N-[5-[2-cyano-5-[(2,2,6,6-tetramethyl-4-piperidyl)oxy]-4-pyridyl]pyrazolo[1,5-a]pyridin-2-yl]cyclopropanecarboxamide]
24 | 21.9 | 0.00111 | C[C@](O)(COc1cnc(C#N)cc1-c1ccn2nc(NC(=O)C3CC3)cc2c1)C(F)(F)F (single isomer, unassigned) [Example 50, (*S)—N-(5-(2-Cyano-5-(3,3,3-trifluoro-2-hydroxy-2-methylpropoxy)pyridin-4-yl)pyrazolo[1,5-a]pyridin-2-yl)cyclopropanecarboxamide]
25 | 13.8 | 0.000779 | CN[C@H]1C[C@@H](COc2cnc(C#N)cc2-c2ccn3nc(NC(=O)C4CC4)cc3c2)C1 [Example 98, N-(5-(2-cyano-5-(((1s,3s)-3-(methylamino)cyclobutyl)methoxy)pyridin-4-yl)pyrazolo[1,5-a]pyridin-2-yl)cyclopropanecarboxamide]
26 | 116 | 0.00294 | Cc1cc(-c2ccn3nc(Nc4cc(C)nc(C)n4)cc3c2)c(O[C@H]2CC[C@H](O)CC2)nn1 [Example 488, 4-[4-[2-[(2,6-dimethylpyrimidin-4-yl)amino]pyrazolo[1,5-a]pyridin-5-yl]-6-methyl-pyridazin-3-yl]oxycyclohexanol]

Row | Structure (SMILES) | IC50 (SIK2 [1]) [nM] | IC50 (SIK2 [2]) [µM]
27 | N#Cc1cc(-c2ccn3nc(NC(=O)C4CC4)cc3c2)c(O[C@H]2C[C@@H](CO)C2)cn1 [Example 69, N-[5-[2-cyano-5-[3-(hydroxymethyl)cyclobutoxy]-4-pyridyl]pyrazolo[1,5-a]pyridin-2-yl]cyclopropanecarboxamide] | 38.3 | 0.0028
28 | CN1[C@@H]2CC[C@H]1C[C@@H](Oc1cnc(C#N)cc1-c1ccn3nc(NC(=O)C4CC4)cc3c1)C2 [Example 66, N-[5-[2-cyano-5-[[(1S,5R)-8-methyl-8-azabicyclo[3.2.1]octan-3-yl]oxy]-4-pyridyl]pyrazolo[1,5-a]pyridin-2-yl]cyclopropanecarboxamide] | 8.5 | 0.000561

From patent US20240158392A1 (Janssen Biotech, Inc., priority 2021, published 2024)
